Structures are written as SMILES.

For orientation: melting point means the temperature, or range, at which the solid turns liquid.

`CSc1nc2c(cc1Cl)N(C(=O)Nc1cccnc1)CC2` returned a melting point of 266 to 267 °C.

`Cc1cc(C)cc(OCC(O)CCN2CCN(c3ccccc3)CC2)c1` (centres undefined) had a melting point of 88 to 90 °C.

In turn, `Cc1noc(-c2cc(O)c(O)c([N+](=O)[O-])c2)n1` gave a melting point of 201 to 202 °C.

On to `NCCC(O)(c1ccc(-c2ccccc2)cc1)c1ccc(-c2ccccc2)cc1`, for which the melting point lay within 176 to 178 °C.

As to `COc1cc2c(cc1O)CCCC2=O`, the melting point lay within 117 to 119 °C.

Consider `CC(=CC(=O)c1ccc(C(=O)N2Cc3cccn3Cc3ccccc32)cc1)N(C)C`, for which the melting point was 183 to 185 °C.

As for `CCOC(=O)c1ccc(Sc2cc3c(cc2C(C)C)C(C)(C)CCC3(C)C)cc1`, the melting point fell in the range of 99 to 100 °C.

In turn, `O=C(Cc1ccc(CN2CCCC2)cc1)NCc1ccc(Br)cc1` gave a melting point of 107 to 109 °C.

In turn, `CCCCCCCCC(=O)NCCc1ccc(O)cc1` displayed a melting point of 65.9 to 66.7 °C.

The compound `CC(C)(O)c1cc(O)cc(C(C)(C)O)c1` gave a melting point of 137 to 138 °C.

`CCCOc1ccc(S(=O)(=O)C(C)(C)C)cc1C(N)=O` had a melting point of 215 to 218 °C.

The compound `NS(=O)(=O)C1CCCCC1=O` (centres undefined) yielded a melting point of 118 to 119 °C.

Consider `CN1CCN(C(=O)c2ccc(-c3cnc4c(c3)N(Cc3ccccc3)CCN4)cc2)CC1`, for which the melting point fell in the range of 180 to 181 °C.

`O=c1oc(-c2c(F)cccc2Cl)nn1-c1ccccc1Cl` had a melting point of 92 to 95 °C.

The compound `CC(=O)c1c(C)[nH]c(C(C)c2ccccc2)c1C` (centres undefined) gave a melting point of 146 to 148 °C.

`CCOC(=O)c1cn(C)c2nc3cc(N4CCNC(c5ccc(N)cc5)C4)c(F)cc3cc2c1=O` (racemic) registered a melting point of 180 to 182 °C.

Consider `Cc1ccc(-c2c(CNC(=O)OC(C)(C)C)n(CC(C)C)c(=O)c3ccc(C(=O)O)cc23)cc1`, for which the melting point is 230 to 231 °C.

Consider `COc1cc(COc2nn(-c3ccccc3)cc2/C=C/c2nnco2)ccc1OCc1nc(-c2ccco2)oc1C`, for which the melting point was in the range of 162 to 163 °C.

The compound `Clc1ccnc2cc3c(cc12)OCO3` yielded a melting point of 130 to 132 °C.

`N#Cc1ccc(N2CCN(Cc3cn4cc(Cl)ccc4n3)CC2)c(Cl)c1` gave a melting point of 137 to 138 °C.

`COC(=O)NC(=NS(=O)(=O)NC1CCCCC1)OC`: the melting point lay within 84 to 86 °C.

In the case of `O=C(Cn1c(=O)c(=O)[nH]c2cc([N+](=O)[O-])c(-n3cccc3)cc21)Nc1ccccc1`, the melting point is greater than 300 °C.

`Cc1nc(-c2ccc(OCc3cccc(Cl)c3)cc2)no1` had a melting point of 96 to 98 °C.

As for `CC1CCCCC1C(=O)Nc1ccc(-c2cnc(-c3ccc(NC(=O)c4cccnc4)cc3)[nH]2)cc1` (centres undefined), the melting point was 226 to 228 °C.

`O=C1c2ccccc2Cc2c(O)cccc21`: the melting point lay in the range of 230 to 233 °C.

In turn, `Cn1cc(Br)cc(Nc2cc3c(cn2)CCN(C(=O)OC(C)(C)C)C3)c1=O` gave a melting point of 126 to 128 °C.

With `CCCc1cc2cc(O)c(F)cc2c(Oc2ccc(/C=C/C(=O)O)cc2)c1-c1ccccc1`, the melting point lay in the range of 118 to 120 °C.

For the compound `COCc1nc2c(N)nc3cc(CCC#N)ccc3c2n1CC(C)(C)O`, the melting point was in the range of 191 to 193 °C.

In turn, `CC1N=C(c2ccccc2F)c2cc(I)ccc2NC1=O` (centres undefined) showed a melting point of 211 °C.

The compound `CCOC(=O)C(=CNc1nnc(C)s1)C(=O)c1cc(F)c(F)cc1F` gave a melting point of 147 to 151 °C.

`CCOC(=O)C1CCc2c(c3ccccc3n2C(=O)c2ccc(C)cc2)C1` (centres undefined) had a melting point of 70 to 72 °C.

Consider `Nc1ccc(CO)cc1N`, for which the melting point lay within 74 to 75 °C.

As for `Cc1ccc2ccccc2c1C(=O)/C=C/c1ncn(C(c2ccccc2)(c2ccccc2)c2ccccc2)c1C`, the melting point was in the range of 222 to 224 °C.

In turn, `COc1ccc(N2CCN(c3c(C)c(C)c4c(c3C)C(c3ccc(C)nc3)C(C)(C)O4)CC2)cc1` (centres undefined) gave a melting point of 131 to 133 °C.

As to `CNCCOC(=O)[C@@H](C)c1ccc2cc(OC)ccc2c1`, the melting point is 64 to 68 °C.

For the compound `O=C(c1cc2cc(OCCNC[C@H](O)COc3ccccc3)ccc2o1)N1CCCC1`, the melting point fell in the range of 117 to 118 °C.

`CC1Oc2ccccc2CC1NNc1ncnc2c1ncn2C1OC(CO)C(O)C1O` (centres undefined) registered a melting point of 90 to 92 °C.

In the case of `COC(=O)c1cc2cc(O)ccc2o1`, the melting point was 132 to 133 °C.

Take `CCOC(=O)Cc1c(Cl)nc(-c2ccccc2)n1Cc1ccccc1`: the melting point was 72 to 73 °C.

On to `COc1cc(C(=O)c2ncc3ccc(C(N)=O)cn23)ccc1[N+](=O)[O-]`, for which the melting point was 289 °C.

In turn, `COc1ccc(-c2c3ccccc3cc3sc4ccccc4c23)cc1` displayed a melting point of 220 to 221 °C.

Regarding `NNc1nc(Cl)nc2cccc(F)c12`, the melting point was greater than 280 °C.

Compound `Cc1ccnc(C(=O)c2[nH]c3cc(Cl)ccc3c2N)c1` came in with a melting point of 195 to 196 °C.

Compound `Nc1c(C(=O)O)cnn1-c1ccc(C(F)(F)F)cc1` had a melting point of 169 to 171 °C.

`COc1ccccc1CCNC[C@H](O)COc1ncccc1C#N` yielded a melting point of 97 to 99 °C.

For the compound `O=c1[nH]c2sc(Cl)c(Cl)c2[nH]c1=O`, the melting point was greater than 300 °C.

In turn, `COc1cccc(NC(=O)C(C)Oc2ccc(Oc3ccc(C#N)cc3)cc2)c1` (centres undefined) registered a melting point of 118 to 120 °C.

For the compound `CCCNC(=S)Nc1ccnc(CCCCCN2C(=O)c3ccccc3C2=O)n1`, the melting point lay in the range of 146 to 149 °C.

In the case of `O=C=Nc1ccc(OCC(=O)OCCOC(=O)COc2ccc(N=C=O)cc2)cc1`, the melting point is 96 to 98 °C.

`COc1ccc2ccc(N3C(=O)c4ccccc4C3CC(=O)CCC(C)C)nc2n1` (centres undefined) displayed a melting point of 150 °C.

The compound `C/C(=C\c1ccc(C#N)cc1)c1ccc2c(c1)C(C)(C)C=CC2(C)C` yielded a melting point of 140 to 142 °C.

Compound `CC(C)(O)c1onc(-c2ccccc2Cl)c1C(=O)c1nnn(Cc2cc(C(F)(F)F)cc(C(F)(F)F)c2)c1-c1cccnc1` had a melting point of 105 °C.

Consider `CC(C)OC(=O)C1(c2onc(-c3ccc(O)cc3)c2-c2ccccc2)CC1`, for which the melting point is 175 °C.

Take `CC(=O)Nc1c(C(=O)c2cc(C)ccn2)[nH]c2cc(Cl)ccc12`: the melting point was 187 to 188 °C.

Turning to `Cc1c(SCCCN2CCN(Cc3ccncc3)CC2)ccnc1CNc1ncncc1Cl`, the melting point was 149 to 151 °C.

In turn, `C/C(=C\c1ccc(C(=O)O)cc1)c1ccc2c(c1)C(C)(C)CC(=O)C2(C)C` showed a melting point of 249 to 250 °C.

For the compound `O=C(N1CCOCC1)C(Cl)(c1ccccc1)c1ccccc1`, the melting point is 113 °C.

`CC(C)CC(S)C(=O)NC(Cc1ccc(Br)nc1)C(=O)NC(Cc1ccc(-c2cccs2)nc1)C(=O)O` (centres undefined) registered a melting point of 194 to 195 °C.

`COc1ccccc1-c1cc(F)cc2c1O[C@@H](CN)CC2` came in with a melting point of 100 °C.

Turning to `O=[N+]([O-])c1cnc2ccc(Cl)cc2c1Cl`, the melting point is 118 to 120 °C.

On to `CC1CC(C(=O)O)CCN1C(=O)OC(C)(C)C` (centres undefined), for which the melting point was in the range of 109 to 112 °C.

On to `CN(C)c1ccc(C(=O)C(F)(F)c2cccc(Cl)c2)cc1`, for which the melting point lay within 104 to 108 °C.

Compound `COc1ccc(C=C2CCN(C(=O)OCc3ccccc3)CC2)cc1[N+](=O)[O-]` yielded a melting point of 107 to 108 °C.

`Cc1cc(C)c2c(c1Br)CCC2=O`: the melting point was found to be 103 °C.

Compound `CNc1nc(C2C(=O)Nc3ccc(C(F)(F)F)cc32)c2cn(C3CCCC3)nc2n1` (centres undefined) showed a melting point greater than 300 °C.

Compound `CC(C)(C)COc1c(-c2ccc(S(N)(=O)=O)cc2)cnn(-c2ccc(F)c(F)c2)c1=O` came in with a melting point of 173 to 175 °C.

`CCC(C)c1ccc(-n2c(-c3cc(C)c(OCCO)c(C)c3)nc3ccc(OC)cc3c2=O)cc1` (centres undefined) yielded a melting point of 152 to 154 °C.

Regarding `CC1Oc2ccccc2C(O)C1n1ccnc1` (centres undefined), the melting point is 160 to 175 °C.

`COc1cc2c(Nc3ccc4cn[nH]c4c3)c(C#N)cnc2c(OC)c1OC` displayed a melting point of 243 to 245 °C.

For the compound `Nc1ncccc1-c1nc2cc(-c3cccnc3)cnc2n1-c1ccc(CNS(=O)(=O)C2CC2)cc1`, the melting point lay within 197 to 199 °C.

Regarding `COc1ccc(-c2c3c(cc4ccc(OC)cc24)C(=O)NC3)cc1`, the melting point is 290 to 292 °C.

The compound `CCCCC1(N(C)C)CC=C(c2c[nH]c3ncccc23)CC1` (centres undefined) had a melting point of 142 to 145 °C.

Compound `O=c1cc2ccccc2c[nH]1` came in with a melting point of 201 °C.

Compound `O=C(O)c1cnn(-c2ccc(F)cc2)c1` registered a melting point of 244 to 247 °C.

Compound `CCCCCCCCCCCCc1ccccc1C(Sc1ncc(C(=O)O)n1C)C(O)CCC(=O)O` (centres undefined) registered a melting point of 79 to 80 °C.

Consider `Cc1ccc(N2C(=O)NC(=O)C23CCN(Cc2ccccc2)CC3)cc1`, for which the melting point was in the range of 291 to 293 °C.

In turn, `Cc1cc(N2CCC3(CC2)OCCO3)c2cccc(Br)c2n1` displayed a melting point of 156 to 158 °C.

In turn, `O=C(Cc1ccc2c(c1)OCO2)N[C@H]1CC[C@H](CCN2CCC(c3cccc4c3CCO4)CC2)CC1` gave a melting point of 209 °C.

`CCCCC1OC(=O)c2cc(NC=O)ccc21` (centres undefined) returned a melting point of 127 to 129 °C.

`COc1ccc2[nH]c(-c3cc(C)c(O)c(C)c3)c(C)c2c1`: the melting point was 158 to 159 °C.

For `CCOC(=O)[C@H](O)[C@@H](NC(=O)OC(C)(C)C)c1ccc(C)cc1`, the melting point was 130 °C.

`N#CCCNC(=S)C1=CC(CF)(CF)Oc2ccc([N+](=O)[O-])cc21` came in with a melting point of 114 to 116 °C.

For `CS(=O)(=O)C=C(N)C1(c2ccc(Cl)cc2)CCC1`, the melting point lay in the range of 125 to 126 °C.

In the case of `Cc1ccc(C=C2C(=O)N(c3cc(F)ccc3F)C(=O)N2C)cc1`, the melting point lay in the range of 136 to 140 °C.

Compound `COc1nc(C(F)(F)C(F)(F)F)cc(=O)n1-c1cc(C(=O)O)c(Cl)cc1F` returned a melting point of 197 to 199 °C.

For the compound `COC(=O)C1=C(C)NC(=S)N(C(=O)Cc2ccccc2)C1c1cccc([N+](=O)[O-])c1` (centres undefined), the melting point lay within 155 to 156 °C.

As to `COc1ccc(CN2C(=O)CC2CC(=O)O)c(OC)c1` (centres undefined), the melting point is 90 to 91 °C.

In turn, `CCc1nc2c(C)cc(C)nc2n1Cc1ccc(C(CC(=O)NS(=O)(=O)c2ccccc2)c2ccccc2)cc1` (centres undefined) came in with a melting point of 81 to 86 °C.

As for `CNC(=O)C(SC)c1cc(Cl)cc(C(=O)c2ccccc2)c1N` (centres undefined), the melting point lay within 170 to 171 °C.

The record behind these values is a melting point compilation (Tetko et al.; mined from patent text by program, amines drawn as free bases though some values may be those of a salt).
